System: parasites (ring stage parasites, parasite growth)
Test: Parasite LDH growth assay (Parasite Assay), antiparasite potency
Format: cell-based
Conditions: 72 h, 72 hours growth, LDH readout; Table 3
Summary of the method: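 Ring-stage culture was adjusted to 0.7% parasitemia and 2% haematocrit in bicarbonate-buffered RPMI-Hepes with heat-inactivated human serum and 0.5% albumax, then added to compound. Plates were incubated 72 h at 37 °C in gassed humidified boxes, frozen at −80 °C overnight and thawed, and growth was read by LDH assay.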

Compound	EC50 [nM]
CC1(C)CC(=O)N(C[C@@H]2C[C@H]2C(=O)N[C@H]2CC3(CCC3)Oc3ccccc32)C(=N)N1 [Example 135]	190
CC1(C)CC(=O)N([C@H](c2cccnc2)[C@@H]2C[C@H]2C(=O)N[C@H]2CC(C)(C)Oc3c(C(F)(F)F)ccc(F)c32)C(=N)N1 [Example 115B]	1
COc1ccc([C@H]([C@@H]2C[C@H]2C(=O)N[C@H]2C[C@H](C(F)(F)F)Oc3ccccc32)N2C(=N)NC(C)(C)CC2=O)cn1 [Example 37]	1.2
CC[C@]1(C)CC(=O)N([C@H](CCOC)[C@@H]2C[C@H]2C(=O)N[C@H]2CC(C)(C)Oc3ccc(C)cc32)C(=N)N1 [Example 123]	2
CCC1(CC)CC(=O)N(CC2CC2C(=O)N[C@H]2CCOc3ccccc32)C(=N)N1 (some centres unmarked) [Example 4C]	85
CC1(C)CC(=O)N([C@H](c2ccc(C#N)cc2)[C@@H]2C[C@H]2C(=O)N[C@H]2C[C@H](C(F)(F)F)Oc3ccccc32)C(=N)N1 [Example 47B]	0.9
COCC[C@H]([C@@H]1C[C@H]1C(=O)NC1CC(C)(C)Oc2cc(F)ccc21)N1C(=N)NC(C)(C)CC1=O (some centres unmarked) [Example 76A]	17
CCC1(CC)CC(=O)N(C[C@@H]2C[C@H]2C(=O)N[C@@H]2CC(C)(C)Oc3ccc(F)cc32)C(=N)N1 [Example 7B]	29
CCC1(CC)CC(=O)N(C[C@H]2C[C@@H]2C(=O)N[C@@H]2c3ccccc3C[C@H]2O)C(=N)N1 [Example 6A]	188
CC1(C)CC(=O)N([C@H](c2cccnc2)[C@@H]2C[C@H]2C(=O)NC2CC(C)(C)Oc3c(F)cc(F)cc32)C(=N)N1 (some centres unmarked) [Example 122A]	2.3
CCC1(CC)CC(=O)N([C@H](CCOC)[C@@H]2C[C@H]2C(=O)N[C@@H]2CC(C)(C)Oc3ccccc32)C(=N)N1 [Example 1B]	250
COc1ccc([C@H]([C@@H]2C[C@H]2C(=O)N[C@H]2CC(C)(C)Oc3ccccc32)N2C(=N)NC(C)(C)CC2=O)cn1 [Example 38]	6.5
COCC[C@H]([C@@H]1C[C@H]1C(=O)N[C@H]1CC(C)(C)Oc2ccc(Cl)cc21)N1C(=N)NC(C)(C)CC1=O [Example 101]	2.9
CCC1(CC)CC(=O)N(C[C@@H]2C[C@H]2C(=O)N[C@H]2CCOc3ccccc32)C(=N)N1 [Example 4B]	26
CCC1(CC)CC(=O)N(CC2C(C(=O)N[C@H]3C[C@H](C(F)(F)F)Oc4ccccc43)C2(C)C)C(=N)N1 (some centres unmarked) [Example 31A]	215
COCC[C@H]([C@@H]1C[C@H]1C(=O)N[C@@H]1CC(C)(C)Oc2cccc(OC)c21)N1C(=N)NC(C)(C)CC1=O [Example 74A]	33

Compound	EC50 [nM]
COCC[C@H]([C@@H]1C[C@H]1C(=O)N[C@H]1CC(C)(C)Oc2cc(C)ccc21)N1C(=N)NC(C)(C)CC1=O [Example 83A]	6.6
CC1(C)CC(=O)N([C@H](c2cccnc2)[C@@H]2C[C@H]2C(=O)N[C@H]2CC(C)(C)Oc3ccc(Cl)cc32)C(=N)N1 [Example 120]	1
COCC[C@H]([C@@H]1C[C@H]1C(=O)N[C@H]1CC(C)(C)Oc2c(C(F)(F)F)ccc(F)c21)N1C(=N)NC(C)(C)CC1=O [Example 114B]	5.1
COCC[C@H]([C@@H]1C[C@H]1C(=O)N[C@@H]1CC(C)(C)Oc2cc(Cl)ccc21)N1C(=N)NC(C)(C)CC1=O [Example 89B]	22
CC1(C)CC(=O)N([C@@H](c2ccc(C#N)cc2)[C@@H]2C[C@H]2C(=O)N[C@H]2C[C@H](C(F)(F)F)Oc3ccccc32)C(=N)N1 [Example 47A]	155
CC1(C)CC(=O)N([C@H](c2cncc(Cl)c2)[C@@H]2C[C@H]2C(=O)N[C@@H]2c3ccccc3OC(C)(C)[C@H]2O)C(=N)N1 [Example 59]	3.8
COCC[C@H]([C@@H]1C[C@H]1C(=O)NC1CC(C)(C)Oc2ccc(OC(F)(F)F)cc21)N1C(=N)NC(C)(C)CC1=O (some centres unmarked) [Example 126A]	4.7
CC1(C)CC(=O)N(C[C@@H]2C[C@H]2C(=O)NC2CC(C)(C)Oc3c(Cl)cc(Cl)cc32)C(=N)N1 (some centres unmarked) [Example 97A]	180
CC1(C)CC(=O)N([C@@H](c2ccc(C#N)cc2)[C@@H]2C[C@H]2C(=O)N[C@H]2CC(C)(C)Oc3ccccc32)C(=N)N1 [Example 45B]	220
CC[C@]1(C)CC(=O)N([C@@H](c2cncc(F)c2)[C@@H]2C[C@H]2C(=O)N[C@@H]2c3ccccc3OCC2(C)C)C(=N)N1 [Example 102B]	2.5
Cc1ccc2c(c1)OC(C)(C)C[C@@H]2NC(=O)[C@@H]1C[C@H]1CN1C(=N)NC(C)(C)CC1=O [Example 84]	289
COCC[C@H]([C@@H]1C[C@H]1C(=O)N[C@@H]1CC(C)(C)Oc2c(C(F)(F)F)ccc(F)c21)N1C(=N)NC(C)(C)CC1=O [Example 114A]	89
CC1(C)CC(=O)N(C[C@@H]2C[C@H]2C(=O)N[C@H]2CC(C)(C)Oc3ccc(C(F)(F)F)cc32)C(=N)N1 [Example 100]	170
COCC[C@H]([C@@H]1C[C@H]1C(=O)N[C@H]1CCOc2ccccc21)N1C(=N)N[C@](C)(C(C)C)CC1=O [Example 22]	44
COCC[C@H]([C@@H]1C[C@H]1C(=O)N[C@H]1CC(C)(C)Oc2cc(C)c(C)cc21)N1C(=N)NC(C)(C)CC1=O [Example 138A]	7.4
CCC1(CC)CC(=O)N([C@H](c2cccnc2)[C@@H]2C[C@H]2C(=O)N[C@H]2CCOc3ccccc32)C(=N)N1 [Example 9]	6.9

Same assay, conditions: 72 h, 72 hours growth, LDH readout; Table 4 (unit inferred)

Compound	EC50 [nM]
CCC1(CC)CC(=O)N([C@H](CCOC)[C@@H]2C[C@H]2C(=O)N[C@H]2CC(C)(C)Oc3ccc(Cl)cc32)C(=N)N1 [Example 146]	1.1
CCC1(CC)CC(=O)N([C@H](CCOC)[C@@H]2C[C@H]2C(=O)N[C@@H]2c3ccccc3OC(C)(C)[C@H]2O)C(=N)N1 [Example 145]	8.4

Same assay, conditions: 72 hours growth, LDH readout; Table 3

Compound	EC50 [nM]
CC1(C)CC(=O)N([C@H](c2cccnc2)[C@@H]2C[C@H]2C(=O)NC2CC(C)(C)Oc3cc(F)ccc32)C(=N)N1 (some centres unmarked) [Example 77B]	2.3
CCC1(CC)CC(=O)N(C[C@@H]2C(C)[C@H]2C(=O)N[C@@H]2c3ccccc3OC(C)(C)[C@H]2O)C(=N)N1 (single isomer, unassigned) [Example 30B]	7.7
CC1(C)CC(=O)N(C[C@@H]2C[C@H]2C(=O)N[C@H]2CC(C3CC3)Oc3ccccc32)C(=N)N1 (some centres unmarked) [Example 140B]	280
CCC1(CC)CC(=O)N(C[C@@H]2C(C)[C@H]2C(=O)N[C@H]2CC(C)(C)Oc3ccccc32)C(=N)N1 (single isomer, unassigned) [Example 25B]	25
CC[C@]1(C)CC(=O)N([C@H](CCOC)[C@@H]2C[C@H]2C(=O)NC2CC(C)(C)Oc3ccc(OC(F)(F)F)cc32)C(=N)N1 (some centres unmarked) [Example 129B]	2.5
CC1[C@@H](C(c2cccnc2)N2C(=N)NC(C)(C)CC2=O)[C@@H]1C(=O)N[C@H]1C[C@H](C(F)(F)F)Oc2ccccc21 (single isomer, unassigned) [Example 54A]	1
COCC1(C)CC(NC(=O)[C@@H]2C[C@H]2[C@@H](c2cccnc2)N2C(=N)NC(C)(C)CC2=O)c2ccccc2O1 (single isomer, unassigned) [Example 108A]	70
COCC1(C)CC(NC(=O)[C@@H]2C[C@H]2[C@@H](c2cccnc2)N2C(=N)NC(C)(C)CC2=O)c2ccccc2O1 (single isomer, unassigned) [Example 108B]	3.7
CC[C@]1(C)CC(=O)N(C(c2cncc(F)c2)[C@@H]2C[C@H]2C(=O)N[C@@H]2c3ccccc3OC(C)(C)C2(C)O)C(=N)N1 (single isomer, unassigned) [Example 103A]	29
CCC1(CC)CC(=O)N(C[C@@H]2C(C)[C@H]2C(=O)N[C@@H]2c3ccccc3CC2(C)O)C(=N)N1 (single isomer, unassigned) [Example 29B]	351
CCC1(CC)CC(=O)N(C[C@@H]2C(C)[C@H]2C(=O)N[C@H]2C[C@H](C(F)(F)F)Oc3ccccc32)C(=N)N1 (some centres unmarked) [Example 28B]	14
CCC1(CC)CC(=O)N(C[C@@H]2C(C)[C@H]2C(=O)N[C@@H]2c3ccccc3OCC2(C)O)C(=N)N1 (single isomer, unassigned) [Example 35A]	85
COCC[C@H]([C@@H]1C[C@H]1C(=O)NC1CC(C)(C(C)C)Oc2ccccc21)N1C(=N)NC(C)(C)CC1=O (single isomer, unassigned) [Example 80C]	14
CCC1(C)CC(NC(=O)[C@@H]2C[C@H]2[C@@H](c2cccnc2)N2C(=N)NC(C)(C)CC2=O)c2ccccc2O1 (single isomer, unassigned) [Example 105D]	0.9
CC1[C@@H](C(c2cccnc2)N2C(=N)NC(C)(C)CC2=O)[C@@H]1C(=O)N[C@H]1C[C@H](C(F)(F)F)Oc2ccccc21 (single isomer, unassigned) [Example 54B]	130
COCC1(C)CC(NC(=O)[C@@H]2C[C@H]2[C@@H](c2cccnc2)N2C(=N)NC(C)(C)CC2=O)c2ccccc2O1 (single isomer, unassigned) [Example 108D]	8.5
CC1C[C@H](NC(=O)[C@@H]2C[C@H]2CN2C(=N)NC(C)(C)CC2=O)c2cc(F)ccc2O1 (some centres unmarked) [Example 139B]	130
CCC1(CC)CC(=O)N(C[C@@H]2C(C)[C@H]2C(=O)N[C@@H]2c3ccccc3CC2(C)O)C(=N)N1 (single isomer, unassigned) [Example 29C]	113
CC1(C)CC(=O)N([C@H](c2cccnc2)[C@@H]2C[C@H]2C(=O)NC2CC(C)(C)Oc3cccc(F)c32)C(=N)N1 (some centres unmarked) [Example 86B]	2.8

Same assay, conditions: 72 hours growth, LDH readout; Table 4 (unit inferred)

Compound	EC50 [nM]
CCC1(CC)CC(=O)N(C(CC(C)OC)[C@@H]2C[C@H]2C(=O)N[C@@H]2CC(C)(C)Oc3ccccc32)C(=N)N1 (single isomer, unassigned) [Example 143C]	57.9
CCC1(CC)CC(=O)N([C@H](CCOC)[C@@H]2C[C@H]2C(=O)NC2CC(C)(C)Oc3cccc(Cl)c32)C(=N)N1 (some centres unmarked) [Example 149B]	1.2
CCC1(CC)CC(=O)N(C(CC(C)OC)[C@@H]2C[C@H]2C(=O)N[C@@H]2CC(C)(C)Oc3ccccc32)C(=N)N1 (single isomer, unassigned) [Example 143A]	4.6

— patent US12338219B2, “Antimalarial agents” (Merck Sharp & Dohme LLC, priority 2019, dated 2025)
